Legend:
SMO W281C = SMO W281C (Homo sapiens, UniProt Q99835, W281C); assay: Hedgehog signaling assay; type: cell-based; settings: 100 nM vismodegib and SHH-N ligand
SMO V386A = SMO V386A (Homo sapiens, UniProt Q99835, V386A); assay: Hedgehog signaling assay; type: cell-based; settings: 100 nM vismodegib and SHH-N ligand
SMO Q635E = SMO Q635E (Homo sapiens, UniProt Q99835, Q635E); settings: SHH-N CM, 10, 20 or 80 nM vismodegib
[1] = tested on: advanced and metastatic BCCs; settings: 2012, cited from earlier work
SMO V321M = SMO V321M (Homo sapiens, UniProt Q99835, V321M); assay: Hedgehog signaling assay; type: cell-based; settings: SHH-N CM, 100 nM vismodegib
SMO H231R = SMO H231R (Homo sapiens, UniProt Q99835, H231R); assay: Hedgehog signaling assay; type: cell-based; settings: 100 nM vismodegib and SHH-N ligand
SMO F460L = SMO F460L (Homo sapiens, UniProt Q99835, F460L); assay: Hedgehog signaling assay; type: cell-based; settings: SHH-N CM, 100 nM vismodegib
SMO L412F = SMO L412F (Homo sapiens, UniProt Q99835, L412F); assay: Hedgehog signaling assay; type: cell-based; settings: SHH-N CM, 100 nM vismodegib
[2] = tested on: SMO-LBP and SMO-CA variants; assay: HH pathway activity; settings: […] nM vismodegib (4-fold greater than IC50), SHH-N CM
SMO D473G = SMO D473G (Homo sapiens, UniProt Q99835, D473G); assay: Hedgehog signaling assay; type: cell-based; settings: 100 nM vismodegib and SHH-N ligand
SMO Q477E = SMO Q477E (Homo sapiens, UniProt Q99835, Q477E); assay: Hedgehog signaling assay; type: cell-based; settings: 100 nM vismodegib and SHH-N ligand
[3] = tested on: syndromic BCCs in patients with Basal Cell Nevus Syndrome; settings: Gorlin, inherited PTCH1 loss; ref Tang et al., 2012; cited from earlier work

SMO F460L, sequence (Q99835 28-787 F460L): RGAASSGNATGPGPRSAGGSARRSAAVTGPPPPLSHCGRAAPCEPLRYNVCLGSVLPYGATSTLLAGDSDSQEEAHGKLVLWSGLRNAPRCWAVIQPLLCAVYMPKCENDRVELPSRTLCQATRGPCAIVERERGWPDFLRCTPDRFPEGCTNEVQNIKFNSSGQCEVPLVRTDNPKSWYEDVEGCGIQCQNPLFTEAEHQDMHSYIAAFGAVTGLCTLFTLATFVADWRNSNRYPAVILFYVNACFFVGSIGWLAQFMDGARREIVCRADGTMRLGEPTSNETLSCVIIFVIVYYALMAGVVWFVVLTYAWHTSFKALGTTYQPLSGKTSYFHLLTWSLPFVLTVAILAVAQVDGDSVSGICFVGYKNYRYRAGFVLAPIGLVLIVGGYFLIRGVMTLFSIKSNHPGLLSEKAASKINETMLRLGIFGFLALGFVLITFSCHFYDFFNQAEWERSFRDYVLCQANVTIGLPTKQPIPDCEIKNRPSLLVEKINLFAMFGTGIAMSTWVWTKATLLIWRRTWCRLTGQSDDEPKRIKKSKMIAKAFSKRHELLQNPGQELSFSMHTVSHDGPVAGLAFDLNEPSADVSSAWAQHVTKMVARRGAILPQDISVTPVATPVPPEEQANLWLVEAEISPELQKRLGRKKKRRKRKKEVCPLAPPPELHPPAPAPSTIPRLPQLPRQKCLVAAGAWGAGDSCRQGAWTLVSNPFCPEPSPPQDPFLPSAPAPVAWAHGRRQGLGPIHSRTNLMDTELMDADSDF
SMO V321M, sequence (Q99835 28-787 V321M): as the sequence (Q99835 28-787 F460L) above, with V294M, L433F counted along it
SMO W281C, sequence (Q99835 28-787 W281C): as the sequence (Q99835 28-787 F460L) above, with W254C, L433F counted along it
SMO L412F, sequence (Q99835 28-787 L412F): as the sequence (Q99835 28-787 F460L) above, with L385F, L433F counted along it
SMO H231R, sequence (Q99835 28-787 H231R): as the sequence (Q99835 28-787 F460L) above, with H204R, L433F counted along it
SMO Q635E, sequence (Q99835 28-787 Q635E): as the sequence (Q99835 28-787 F460L) above, with L433F, Q608E counted along it
SMO D473G, sequence (Q99835 28-787 D473G): as the sequence (Q99835 28-787 F460L) above, with L433F, D446G counted along it
SMO V386A, sequence (Q99835 28-787 V386A): as the sequence (Q99835 28-787 F460L) above, with V359A, L433F counted along it
SMO Q477E, sequence (Q99835 28-787 Q477E): as the sequence (Q99835 28-787 F460L) above, with L433F, Q450E counted along it

CS(=O)(=O)c1ccc(C(=O)Nc2ccc(Cl)c(-c3ccccn3)c2)c(Cl)c1 [vismodegib]
HH activity (Gli1 mRNA) in the presence of drug (SMO W281C): retained high levels of HH activity
HH activity (Gli1 mRNA) in the presence of drug (SMO V386A): response similar to SMO WT
HH pathway activity, resistance at low drug concentrations (SMO Q635E): resistance at low but not high vismodegib concentrations
patients developing resistance during the first year ([1]; additional to non-responders, ref Chang and Oro): 20%
overall response rate ([1]; advanced and metastatic BCCs, ref Axelson et al., 2013, Sekulic et al.): 48%
HH pathway activity, responsiveness to drug (SMO V321M): partially or completely unresponsive
HH activity (Gli1 mRNA) in the presence of drug (SMO H231R): retained high levels of HH activity
HH pathway activity, responsiveness to drug (SMO F460L): partially or completely unresponsive
HH pathway activity, responsiveness to drug (SMO L412F): partially or completely unresponsive
HH pathway activity (Gli1 mRNA) in the presence of SMO variants [2]: partial or complete resistance
HH activity (Gli1 mRNA) in the presence of drug (SMO D473G): retained high levels of HH activity
HH activity (Gli1 mRNA) in the presence of drug (SMO Q477E): retained high levels of HH activity
clinical response [3]: respond to vismodegib and have a low rate of acquired resistance

From paper PMC4357167 (Cancer cell, 2015)
